{"source": "patent US6638541B1", "about": "“Sexual desire and performance enhancement with protein-bound tryptophan” (priority 2002, dated 2003)", "origin": "cited, not measured here", "key": {"[1]": {"conditions": "higher dosages (greater than 12 gm per day); Hartmann, 1977"}, "[2]": {"test_system": "sleep / sleep latency"}, "[3]": {"molecular_target": "T1, plasma albumin (Homo sapiens, UniProt P02768)", "T1 construct": "host or cells: blood plasma in vivo (endogenous circulating albumin)", "T1 sequence (P02768 25-609)": "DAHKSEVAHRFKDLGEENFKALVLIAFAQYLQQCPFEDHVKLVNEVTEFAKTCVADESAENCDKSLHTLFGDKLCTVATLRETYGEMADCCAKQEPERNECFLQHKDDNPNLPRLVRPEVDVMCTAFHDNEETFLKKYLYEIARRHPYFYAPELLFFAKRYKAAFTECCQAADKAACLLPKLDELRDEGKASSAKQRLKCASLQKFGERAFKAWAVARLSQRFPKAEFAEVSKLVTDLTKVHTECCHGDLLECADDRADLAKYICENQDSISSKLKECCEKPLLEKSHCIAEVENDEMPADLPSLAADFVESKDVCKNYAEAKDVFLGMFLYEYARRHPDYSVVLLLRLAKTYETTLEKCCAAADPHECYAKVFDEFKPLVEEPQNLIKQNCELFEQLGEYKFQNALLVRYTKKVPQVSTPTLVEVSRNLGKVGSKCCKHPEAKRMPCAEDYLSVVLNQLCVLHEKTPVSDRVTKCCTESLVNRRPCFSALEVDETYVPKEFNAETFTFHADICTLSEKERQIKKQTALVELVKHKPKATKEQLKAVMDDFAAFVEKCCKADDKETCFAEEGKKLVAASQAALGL", "conditions": "after absorption, circulating in the blood"}}, "data": [{"smiles": "N[C@@H](Cc1c[nH]c2ccccc12)C(=O)O", "note": "[tryptophan]", "values": [{"measurement": "most frequent complaints", "setting": "[1]", "value": "daytime sedation and nausea"}, {"measurement": "dose at which the hypnotic dose-response curve plateaus", "setting": "[2]; fairly flat dose-response curve, Schneider-Helmut and Spinweber, 1986", "value": "approximately 1000 mg"}, {"measurement": "dose sufficient to produce improved sleep", "setting": "[2]; given alone, people with mild insomnia or longer-than-average sleep latency", "value": 250, "unit": "mg"}, {"measurement": "fraction circulating as free tryptophan", "setting": "[3]", "value": 20, "unit": "%"}, {"measurement": "fraction of tryptophan in blood bound to plasma albumin", "setting": "[3]", "value": "approximately 80%"}]}]}
